Measured values published in patent US9693994B2, “Class IIa HDAC inhibitors for the treatment of infection” (Research Development Foundation, priority 2014, dated 2017).
Where two headings read alike, the source gives them in different places.

Columns and labels:
[1] = system: Bone Marrow Macrophages (BMMs); assay: Cytokine mRNA and secretion in LPS-treated bone marrow macrophages; format: cell-based, mouse
histone deacetylase = conditions: Yoshida et al., 1990; read-out: Ki, inhibitor of histone deacetylase; cited from earlier work
NF-κB subunit p65 = assay: NF-κB signalling, immunoblot and ChIP in LPS-treated BMMs; format: cell-based, mouse
Method: Bone marrow macrophage cells (BMMs) were prepared from mouse bone marrow cells as described ([…] and Porse, 2008). BMMs were plated in 150-mm plates and exposed to LPS (10 ng/ml) with or without PGE2 (100 nM) for 1 hr. ChIP assays were performed as described (Screaton et al., 2004). RNA was isolated by RNeasy kit (Qiagen).

HDAC4 = HDAC4 dephosphorylation and localization in BMMs; format: cell-based, mouse; conditions: wild-type BMMs, PGE2 in combination with LPS
Method: Bone marrow macrophage cells (BMMs) were prepared from mouse bone marrow cells as described (Weischenfeldt and Porse, 2008).

[2] = LPS-induced sepsis: survival and circulating cytokines; format: in vivo, mice; conditions: for effect on survival after LPS: wild-type/control mice
Method: Cytokine and Metabolite Analysis: Mice were injected with LPS (30 mg/kg) with or without Rolipram (5 mg/kg for 16 hours (h) and serum was obtained through cardiac puncture. BMMs were stimulated with LPS (10 ng/ml) with or without PGE2 (100 nM) for 16 hr and supernatant was collected.
All mice were housed in colony cages with a 12 hr light/dark cycle in a temperature-controlled environment. For LPS-induced sepsis, mice were injected intraperitoneally with 30 mg/kg LPS or PBS (UT). Survival after LPS was monitored. For studies with KO mice, age-matched wild-type littermates were employed as controls.

[3] = Glucose and insulin tolerance testing in HFD-fed mice; format: in vivo; conditions: rolipram 7 days
Method: For HFD studies, 6-week-old mice were transferred to a 60% HFD (Research Diets, D12492) for 4 to 12 weeks as indicated. Magnetic resonance imaging scans for fat and lean mass were performed using an Echo MRI-100 instrument according to the manufacturer's instructions. For metabolic cage studies, mice were individually housed for at least 2 days. Food intake, total activity, oxygen consumption and carbon dioxide production were simultaneously measured for individually housed mice with a LabMaster system (TSE Systems). Data were collected for 2-3 days and analyzed. For glucose tolerance testing, mice were fasted for 16 h and then injected i.p. with glucose (1.5 g/kg). For insulin tolerance testing, mice were fasted 2 h and injected i.p. with insulin (Humulin; 1 U/kg). Rolipram (5 mg/kg/day) was injected i.p. for 7 days. Blood was collected from the tail vein and glucose levels were measured with a One Touch Ultra Glucometer (Johnson & Johnson).

[4] = Leptin injection in ob/ob mice: norepinephrine, cAMP and HDAC4 in adipose

Molecule: CN[C@@H]1C[C@H]2O[C@@](C)([C@@H]1OC)n1c3ccccc3c3c4c(c5c6ccccc6n2c5c31)C(=O)NC4 [staurosporine]
- cytokine gene expression ([1]; BMMs exposed to LPS, pre-treatment with SIK inhibitor 10 nM): decreased

Molecule: CC(/C=C/C(=O)NO)=C\[C@@H](C)C(=O)c1ccc(N(C)C)cc1 [Trichostatin A, (2E,4E,6R)-7-(4-(Dimethylamino)phenyl)-N-hydroxy-4,6-dimethyl-7-oxo-2,4-heptadienamide]
- Ki (histone deacetylase): ~3.4 nM

Molecule: CCCCC[C@H](O)/C=C/[C@H]1[C@H](O)CC(=O)[C@@H]1C/C=C\CCCC(=O)O [PGE2, Prostaglandin E2]
- pro-inflammatory cytokine mRNA amounts and secretion ([1]; cultured BMMs exposed to LPS): reduced
- IL10 mRNA and protein secretion ([1]; wild-type BMMs, LPS plus PGE2): upregulated
- activation of P38 or JNK, phosphorylation of IκBα or p65 in response to LPS (NF-κB subunit p65; BMMs, LPS plus PGE2): did not interfere
- p65 recruitment to the TNFα and IL12β promoters (NF-κB subunit p65; BMMs, LPS plus PGE2 compared to LPS alone): reduced
- amounts of acetylated p65 in HDAC4 MKO cells (NF-κB subunit p65; HDAC4 MKO BMMs, LPS plus PGE2): did not reduce
- LPS-dependent increases in p65 and histone H4K5 acetylation over cytokine promoters (NF-κB subunit p65; wild-type BMMs, LPS plus PGE2): blocked
- HDAC4 dephosphorylation at Ser246 and nuclear translocation (HDAC4): triggered

Molecule: COc1ccc(C2CNC(=O)C2)cc1OC1CCCC1 (stereo not shown) [Rolipram]
- effect on LPS-induced cytokine release (circulating TNFα, IL12β) ([2]; C57BL/6J mice, LPS 30 mg/kg, Rolipram 5 mg/kg co-administered): blocked
- effect on survival after LPS in HDAC4 MKO mice ([2]; HDAC4 MKO littermates, LPS plus rolipram): modest effects
- effect on survival after LPS ([2]; LPS 30 mg/kg, Rolipram 5 mg/kg co-administered): blocked
- effect on survival after LPS ([2]; LPS 30 mg/kg, Rolipram 5 mg/kg co-administered, listed as rolipram): improved survival
- glucose tolerance and insulin sensitivity in HDAC4 MKO ([3]; HDAC4 MKO littermates on HFD): not
- glucose tolerance and insulin sensitivity ([3]; wild-type mice on HFD): improved

Molecule: cholera toxin
- cytokine gene expression [1]: lowered

Molecule: pertussis toxin
- cytokine gene expression [1]: lowered

Molecule: CC(C)NCC(O)COc1cccc2ccccc12 (stereo not shown) [propranolol]
- leptin-induced HDAC4 de-phosphorylation in WAT ([4]; leptin plus propranolol): propranolol-sensitive
- leptin-induced rise in cAMP ([4]; ob/ob mice, leptin plus β adrenergic antagonist): blocked

B1: leptin: hormone injected into ob/ob mice; triggers catecholamine-dependent increases in cAMP signaling (protein, UniProt P41160 22-167, looked up)
Leptin: VPIQKVQDDTKTLIKTIVTRINDISHTQSVSAKQRVTGLDFIPGLHPILSLSKMDQTLAVYQQVLTSLPSQNVLQIANDLENLRDLLHLLAFSKSCSLPQTSGLQKPESLDGVLEASLYSTEVVALSRLQGSLQDILQQLDVSPEC
- HDAC4 de-phosphorylation in WAT ([4]; leptin administration): promoted
- nuclear translocation of HDAC4 in adipose resident macrophages ([4]; leptin administration): stimulated
- circulating concentrations of norepinephrine and cAMP content in epididymal fat pads ([4]; ob/ob mice, leptin injection): upregulated
